# Measurements: patent US6685617B1, “Inhibitors of α4β1 mediated cell adhesion” (Pharmacia & Upjohn Company, priority 1998, dated 2004)
# Columns and labels:
# [1] = molecular target: T1, α4β1 integrin (Jurkat T-cell adhesion to IL-1 stimulated endothelial cell monolayers) (Homo sapiens, UniProt P05556+P13612); assay: Jurkat-endothelial cell adhesion assay (Jurkat EC); type: cell-based; conditions: Jurkat cells on IL-1 stimulated human umbilical vein endothelial cells; read-out: JK/EC (Jurkat EC Assay IC50 value range)
# T1 construct: a T-cell line, Jurkat, known to express the α4β1 integrin; host or cells: Jurkat T-cell line
# T1 sequence (P13612 34-1032): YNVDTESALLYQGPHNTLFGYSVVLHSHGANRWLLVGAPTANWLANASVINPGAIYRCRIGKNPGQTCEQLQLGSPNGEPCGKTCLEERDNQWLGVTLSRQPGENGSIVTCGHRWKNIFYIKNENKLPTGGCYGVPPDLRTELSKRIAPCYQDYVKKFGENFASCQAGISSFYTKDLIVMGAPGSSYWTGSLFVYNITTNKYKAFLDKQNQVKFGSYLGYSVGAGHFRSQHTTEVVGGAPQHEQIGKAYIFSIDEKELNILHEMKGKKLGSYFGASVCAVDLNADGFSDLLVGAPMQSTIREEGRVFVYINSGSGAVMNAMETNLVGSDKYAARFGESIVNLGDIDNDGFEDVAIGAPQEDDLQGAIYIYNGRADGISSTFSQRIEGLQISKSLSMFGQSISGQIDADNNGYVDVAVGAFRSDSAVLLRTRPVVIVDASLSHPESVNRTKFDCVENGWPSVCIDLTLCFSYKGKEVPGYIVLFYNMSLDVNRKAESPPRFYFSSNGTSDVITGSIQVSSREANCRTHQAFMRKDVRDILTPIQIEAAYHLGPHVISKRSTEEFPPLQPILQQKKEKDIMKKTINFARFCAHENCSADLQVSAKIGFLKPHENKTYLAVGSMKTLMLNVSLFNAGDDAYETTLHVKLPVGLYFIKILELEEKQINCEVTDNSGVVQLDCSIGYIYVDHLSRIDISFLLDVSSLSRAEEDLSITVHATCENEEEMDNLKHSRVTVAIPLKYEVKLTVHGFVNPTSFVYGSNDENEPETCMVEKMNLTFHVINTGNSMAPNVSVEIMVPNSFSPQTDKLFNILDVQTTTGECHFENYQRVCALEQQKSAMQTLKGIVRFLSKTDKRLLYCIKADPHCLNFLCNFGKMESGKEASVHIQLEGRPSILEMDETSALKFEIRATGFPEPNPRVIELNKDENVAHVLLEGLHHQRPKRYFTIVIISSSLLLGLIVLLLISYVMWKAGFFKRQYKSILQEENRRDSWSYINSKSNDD
# T1 sequence (P05556 21-798): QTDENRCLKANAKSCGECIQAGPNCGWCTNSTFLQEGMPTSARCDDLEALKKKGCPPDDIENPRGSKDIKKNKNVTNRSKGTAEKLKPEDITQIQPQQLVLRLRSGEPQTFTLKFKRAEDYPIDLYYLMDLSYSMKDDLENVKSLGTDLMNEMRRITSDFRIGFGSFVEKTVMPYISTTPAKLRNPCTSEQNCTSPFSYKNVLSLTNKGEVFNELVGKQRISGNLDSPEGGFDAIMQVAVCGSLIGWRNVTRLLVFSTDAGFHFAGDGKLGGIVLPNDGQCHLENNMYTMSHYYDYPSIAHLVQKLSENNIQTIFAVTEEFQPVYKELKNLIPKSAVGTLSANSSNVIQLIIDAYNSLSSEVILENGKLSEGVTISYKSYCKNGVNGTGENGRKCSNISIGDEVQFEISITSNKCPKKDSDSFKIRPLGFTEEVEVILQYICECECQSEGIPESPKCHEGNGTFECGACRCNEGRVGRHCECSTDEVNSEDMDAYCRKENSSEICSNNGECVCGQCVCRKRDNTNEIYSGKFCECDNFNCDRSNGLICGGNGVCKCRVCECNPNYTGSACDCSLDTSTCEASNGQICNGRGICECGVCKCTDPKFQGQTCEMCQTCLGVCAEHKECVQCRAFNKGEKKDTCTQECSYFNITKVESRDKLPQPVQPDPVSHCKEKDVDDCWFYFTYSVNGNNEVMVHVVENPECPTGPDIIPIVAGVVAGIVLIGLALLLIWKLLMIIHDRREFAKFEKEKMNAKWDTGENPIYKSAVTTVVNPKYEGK
# Protocol: Jurkat-endothelial Cell Adhesion Assay:
# The following assay established the activity of the present compounds in inhibiting β1-mediated cell adhesion in a representative in vitro system. This assay measures the adhesive interactions of a T-cell line, Jurkat, known to express the α4β1 integrin, to endothelial monolayers in the presence of test compounds. The test compounds were added in increasing concentrations to T-cells and then the T-cell compound mixture was added to IL-1 stimulated endothelial cell monolayers. The plates were incubated, washed and the percentage of attached cells was quantitated.
# Human umbilical vein endothelial cells were purchased from Clonetics (San Diego, Calif.) at passage number 2. The cells were grown on 0.5% porcine skin gelatin pre-coated flasks (Sigma, St. Louis Mo.) in EGM-UV media (Clonetics, San Diego, Calif.) supplemented with 10% fetal bovine serum. Cells are refed every 2-3 days reaching confluence by day 4 to 6. […] The endothelial cells are not used following passage 6.
# The T-cell line Jurkat was obtained from American Type Tissue Culture Collection (Rockville, Md.) and the cells were cultured in RPMI containing 10% fetal calf serum. The cells were washed twice in Hank's Balanced Salt Solution (HBSS) and resuspended in Dulbecco's Minimal Eagle's Media (DMEM) containing 2.5 mg/ml Human Serum Albumin (HSA). Jurkat cells (1×10^6 cells/ml) were stained with 10 ng/ml BCECF-AM (Molecular Probes, Eugene, Oreg.)) in HBSS without phenol red. The cells were loaded with BCECF for 60 minutes in the dark at 370C, washed 2 times, and resuspended in DMEM-HSA solution.
# Confluent endothelial monolayers, grown in 96-well tissue culture plates, were stimulated for 4 hr. at 37° C. with 0.1 ng/ml (˜50 U/ml) recombinant IL-1 (Amgen, Thousand Oaks, Calif.). Following this incubation, the monolayers were washed twice with HBSS and 0.1 ml of DMEM−HSA solution was added. Jurkat cells (5×10^5 cells) were combined with the appropriate concentration of the test compound and 0.1 ml of the Jurkat cell-compound mixture was added to the endothelial cell monolayers. Generally, 100, 20, 5 and 1.25 μM compound concentrations were tested. […] The plates were placed on ice for 5 minutes to allow for Jurkat cell settling and the plates were incubated at 37° C. for 20 minutes. Following this incubation, the monolayers were washed twice with PBS containing 1 mM calcium chloride and 1 mM magnesium chloride and the plates were read using a Millipore Cytofluor 2300 (Marlboro, Mass.). Fluorescence in each well was measured as Arbitrary Fluorescence Units and percent adhesion in the absence of compound was adjusted to 100% and the % adhesion in the presence of compound was calculated. Monolayers were also fixed in 3% paraformaldehyde and evaluated microscopically to verify the adhesion. This procedure is a modification of a previously published method (Cardarelli et al., J. Biol. Chem. 269:18668-18673 (1994)).
# [2] = molecular target: T2, α4β1 integrin (Jurkat cell adhesion to immobilized CS-1 derived peptide CLHPGEILDVPST) (Homo sapiens, UniProt P05556+P13612); assay: Jurkat-CS-1 assay; type: cell-based; conditions: Jurkat cells on CS-1 peptide coated plates; read-out: JK/CS-1 (Jurkat CS-1 Assay IC50 value range)
# T2 construct: 100 μl of Jurkat cells (2.5×10^6 cells/ml) in DMEM plus BSA; host or cells: Jurkat T-cell line
# T2 sequence (P13612 34-1032): as the sequence (P13612 34-1032) above
# T2 sequence (P05556 21-798): as the sequence (P05556 21-798) above
# Protocol: The CS-1 derived peptide, CLHPGEILDVPST, and the scrambled control peptide, CLHGPIELVSDPT, were synthesized on a Beckman 990 synthesizer using t-Boc methodology. The peptides were immobilized onto microtiter plates using the heterobifunctional crosslinker 3-(2-pyridyldithio)propionic acid N-hydroxysuccinimide ester (SPDP) as reported by Pierschbacher et al., Proc. Natl. Acad. USA, 80:1224-1227 (1983). Microtiter plates were coated with 20 μg/ml HSA for 2 hr. at room temperature, washed once with PBS and derivatized with 10 μg/ml SPDP for 1 hr. After washing, 100 μl of a 100 μg/ml cysteine containing peptide solution which had been recently dissolved was added to the wells and allowed to crosslink to the plates overnight at 4° C. Unbound peptide was removed from plates by washing with PBS. To block non-reacted sites, the plates are coated with 100 μl of a 2.5 mg/ml BSA solution in PBS for 1 hr. at 37° C. 100 μl of Jurkat cells (2.5×10^6 cells/ml) in DMEM plus BSA (2.5 mg/ml) was mixed with an appropriate concentration of the compound to be tested and the mixture was added to peptide coated dishes and incubated for 1 hr. at 37° C. Generally 100, 20, 5 and 1.25 μM concentrations of the compound were tested.
# Following this incubation the plates were washed once with PBS and the attached cells were fixed with 3% paraformaldehyde in PBS and stained with 0.5% toluidine blue in 3.7% formaldehyde. The cells were stained overnight at room temperature and the optical density at 590 nm of toluidine blue stained cells was determined using a vertical pathway spectrophotometer to quantitate attachment (VMAX Kinetic Microplate Reader, Molecular Devices, Menlo Park, Calif.). This procedure is a modification of a previously published method (Cardarelli et al, J. Biol. Chem., 269:18668-18673 (1994) and Cardarelli et al, Proc. Natl. Acad. Sci. USA, 83:2647-2651 (1986)).
IC50 [1] [nM],IC50 [2] [nM],Structure (SMILES)
≥ 1000,50 to 750,"COC(=O)[C@H](Cc1ccc(NC(=O)c2c(Cl)cccc2Cl)cc1)NC(=O)[C@H]1CSCN1C(=O)OC(C)(C)C (relative stereo) [Example 1, [S-(R*,R*)]-4-[[[1-[[4-[(2,6-Dichlorobenzoyl)amino]phenyl]methyl]-2-methoxy-2-oxoethyl]amino]carbonyl]-3-thiazolidinecarboxylic Acid 3-(1,1-Dimethylethyl)ester]"
≤ 250,≤ 50,"CCOC(=O)N1CSC[C@@H]1C(=O)N[C@@H](Cc1ccc(NC(=O)c2c(Cl)cccc2Cl)cc1)C(=O)OC (relative stereo) [Example 4, [S-(R*,R*)]-4-[[[1-[[4-[(2,6-Dichlorobenzoyl)amino]phenyl]methyl]-2-methoxy-2-oxoethyl]amino]carbonyl]-3-thiazolidinecarboxylic Acid 3-Ethyl Ester]"
250 to 1000,50 to 750,"COC(=O)[C@H](Cc1ccc(OCc2c(Cl)cccc2Cl)cc1)NC(=O)[C@H]1CSCN1C(=O)OCCN1CCCCC1 (relative stereo) [Example 5, [S-(R*,R*)]-4-[[[1-[4-[(2,6-Dichlorophenyl)methoxy]phenyl)methyl]-2-methoxy-2-oxoethyl]amino]carbonyl]-3-thiazolidinecarboxylic Acid 3-[2-(1-piperidinyl)ethyl]ester]"
250 to 1000,50 to 750,"COC(=O)CCC(=O)N1CSC[C@@H]1C(=O)N[C@@H](Cc1ccc(NC(=O)c2c(Cl)cccc2Cl)cc1)C(=O)OC (relative stereo) [Example 8, [S-(R*,R*)]-4-[[[1-[[4-[(2,6-Dichlorobenzoyl)amino]phenyl]methyl]-2-methoxy-2-oxoethyl]amino]carbonyl]-γ-oxo-3-thiazolidinebutanoic Acid 3-Methyl Ester]"
≤ 250,≤ 50,"O=C(O)CCC(=O)N1CSC[C@@H]1C(=O)N[C@@H](Cc1ccc(NC(=O)c2c(Cl)cccc2Cl)cc1)C(=O)O (relative stereo) [Example 9, [S-(R*,R*)]-4-[[[1-Carboxy-2-[4-[(2,6-dichlorobenzoyl)amino]phenyl]ethyl]amino]carbonyl]-γ-oxo-3-thiazolidinebutanoic Acid]"
≤ 250,≤ 50,"CC(C)(C)OC(=O)N1CSC[C@@H]1C(=O)N[C@@H](Cc1ccc(NC(=O)c2c(Cl)cccc2Cl)cc1)C(=O)O (relative stereo) [Example 10, [S-(R*,R*)]-4-[[[1-Carboxy-2-[4-[(2,6-dichlorobenzoyl)amino]phenyl]ethyl]amino]carbonyl]-3-thiazolidinecarboxylic Acid 3-(1,1-Dimethylethyl)ester]"
≥ 1000,≥ 750,"CCOC(=O)N1CSC[C@H]1C(=O)N[C@@H](Cc1ccc(NC(=O)c2c(Cl)cccc2Cl)cc1)C(=O)OC (relative stereo) [Example 15, [R-(R*,S*)]-4-[[[1-[[4-[(2,6-Dichlorobenzoyl)amino]phenyl]methyl]-2-methoxy-2-oxoethyl]amino]carbonyl]-3-thiazolidinecarboxylic Acid 3-Ethyl Ester]"
≤ 250,50 to 750,"CCOC(=O)N1CSC[C@H]1C(=O)N[C@@H](Cc1ccc(NC(=O)c2c(Cl)cccc2Cl)cc1)C(=O)O (relative stereo) [Example 16, [R-(R*,S*)]-4-[[[1-Carboxy-2-[4-[(2,6-dichlorobenzoyl)amino]phenyl]ethyl]amino]carbonyl]-3-thiazolidinecarboxylic Acid 3-Ethyl Ester]"
≥ 1000,≥ 750,"COC(=O)[C@H](Cc1ccc(NC(=O)c2c(Cl)cccc2Cl)cc1)NC(=O)[C@H]1N(C(=O)OC(C)(C)C)CSC1(C)C (relative stereo) [Example 17, [R-(R*,S*)]-4-[[[1-[[4-[(2,6-Dichlorobenzoyl)amino]phenyl]methyl]-2-methoxy-2-oxoethyl]amino]carbonyl]-5,5-dimethyl-3-thiazolidinecarboxylic Acid 3-(1,1-Dimethylethyl)ester]"
≥ 1000,≥ 750,COC(=O)[C@H](Cc1ccc(NC(=O)c2c(Cl)cccc2Cl)cc1)NC(=O)[C@H]1CSCN1C(=O)OCC1c2ccccc2-c2ccccc21 (relative stereo) [Example 18]
≤ 250,50 to 750,O=C(Nc1ccc(C[C@H](NC(=O)[C@H]2CSCN2C(=O)OCC2c3ccccc3-c3ccccc32)C(=O)O)cc1)c1c(Cl)cccc1Cl (relative stereo) [Example 19]
≥ 1000,≥ 750,"COC(=O)[C@H](Cc1ccc(NC(=O)c2c(Cl)cccc2Cl)cc1)NC(=O)[C@H]1CSCN1C(=O)OCc1ccccc1 (relative stereo) [Example 20, [S-(R*,R*)]-4-[[[1-[[4-[(2,6-Dichlorobenzoyl)amino]phenyl]methyl]-2-methoxy-2-oxoethyl]amino]carbonyl]-3-thiazolidinecarboxylic Acid 3-Phenylmethyl Ester]"
≤ 250,50 to 750,"O=C(Nc1ccc(C[C@H](NC(=O)[C@H]2CSCN2C(=O)OCc2ccccc2)C(=O)O)cc1)c1c(Cl)cccc1Cl (relative stereo) [Example 21, [S-(R*,R*)]-4-[[[1-Carboxy-2-[4-[(2,6-dichlorobenzoyl)amino]phenyl]ethyl]amino]carbonyl]-3-thiazolidinecarboxylic Acid 3-Phenylmethyl Ester]"
≥ 1000,≥ 750,"COC(=O)[C@H](Cc1ccc(NC(=O)c2c(Cl)cccc2Cl)cc1)NC(=O)[C@H]1CSCN1C(=O)OC12CC3CC(CC(C3)C1)C2 (relative stereo) [Example 22, [S-(R*,R*)]-4-[[[1-[[4-[(2,6-Dichlorobenzoyl)amino]phenyl]methyl]-2-methoxy-2-oxoethyl]amino]carbonyl]-3-thiazolidinecarboxylic Acid 3-(Tricyclo[3.3.1.1^3,7]dec-1-yl)ester]"
≤ 250,≤ 50,"O=C(Nc1ccc(C[C@H](NC(=O)[C@H]2CSCN2C(=O)OC23CC4CC(CC(C4)C2)C3)C(=O)O)cc1)c1c(Cl)cccc1Cl (relative stereo) [Example 23, [S-(R*,R*)]-4-[[[1-Carboxy-2-[4-[(2,6-dichlorobenzoyl)amino]phenyl]ethyl]amino]carbonyl]-3-thiazolidinecarboxylic Acid 3-(Tricyclo[3.3.1.1^3,7]dec-1-yl)ester]"
